Biological target: S-adenosylmethionine synthase isoform type-2 (Rattus norvegicus, UniProt P18298)
Assay: Inhibition Assay
Settings: pH 7.5; 37 °C
Procedure: AdoMet synthetase activity was measured by a radioactive assay using (14C-methyl)-L-methionine as described by Sullivan and Hoffman with minor modification to give better efficiency in the separation of labelled residual methionine and AdoMet formed.

Sequence of S-adenosylmethionine synthase isoform type-2 (P18298 whole entry, canonical isoform): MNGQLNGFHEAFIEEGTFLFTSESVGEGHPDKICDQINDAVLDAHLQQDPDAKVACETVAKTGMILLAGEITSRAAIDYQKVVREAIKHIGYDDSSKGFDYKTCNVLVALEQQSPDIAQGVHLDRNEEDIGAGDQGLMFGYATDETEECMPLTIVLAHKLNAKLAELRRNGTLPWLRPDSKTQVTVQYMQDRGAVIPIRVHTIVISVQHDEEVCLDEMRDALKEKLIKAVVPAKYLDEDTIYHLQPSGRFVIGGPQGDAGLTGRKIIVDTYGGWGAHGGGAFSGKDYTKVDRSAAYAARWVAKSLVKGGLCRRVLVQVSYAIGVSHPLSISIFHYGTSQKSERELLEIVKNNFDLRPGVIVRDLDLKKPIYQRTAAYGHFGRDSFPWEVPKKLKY

| SMILES | IC50 [µM] | Ki [µM] |
| --- | --- | --- |
| N[C@@H](C[C@@H]1CS1)C(=O)O [Epithioamino acid analogue, II(a)] | 140 | 100 |
| C[C@H]1S[C@@H]1C[C@H](N)C(=O)O [Epithioamino acid analogue, II(b)] | 300 | 140 |
| C[C@@H]1S[C@@H]1C[C@H](N)C(=O)O [Epithioamino acid analogue, II(c)] | 400 | 140 |
| N[C@@H](C[C@H]1CO1)C(=O)O [Epoxy analogue, I(a)] | 50 | 7 |
| C[C@H]1O[C@H]1C[C@H](N)C(=O)O [Epoxy analogue, I(b)] | 100 | 61 |
| C[C@@H]1O[C@H]1C[C@H](N)C(=O)O [Epoxy analogue, I(c)] | 110 | 105 |

From BindingDB's records for doi:10.3109/14756369809021481 (Laboratoire De Chimie Bioorganique, 1998)
